Assay: N-Nitroso-varenicline content in individual component (LCMS)
Assay type: physicochemical
Details: not given
Method: Liquid chromatography—mass spectrometry (LCMS) method development for NVC. Ultra-pressure liquid chromatography (UPLC) was used to detect NVC in samples. An ACQUITY™ UPLC™ H-Class PLUS System was utilized with the following configuration. The needle was washed with 80:20 methanol:water and the sample temperature was 10° C. The injection volume was 25 μL and a WATERS™ Acquity UPLC BEH Phenyl 1.7 μm 2.1×100 mm column was used having a column temperature of 30° C. Mobile phase A was 0.1% formic acid in water, and mobile phase B was acetonitrile. A 0.5 mL/min flow rate was utilized. Table 1 and Table 2, shown below, illustrate gradient method parameters and LCMS method validation for NVC, respectively.
Screening excipients for varenicline. Excipients were screened to determine which excipients were promoting nitroso impurities. Varenicline and excipients were physically mixed in 1:1 weight ratio and exposed to 40° C./75% RH for 4 weeks (Table 3 and Table 4).

Compound	N-Nitroso-varenicline
O.OC[C@H]1O[C@@H](O[C@H]2[C@H](O)[C@@H](O)C(O)O[C@@H]2CO)[C@H](O)[C@@H](O)[C@H]1O (stereo partly drawn) [Lactose Monohydrate]	0 ng
Magnesium Stearate	0 ng
7,8,9,10-tetrahydro-6,10-methano-6H-pyrazino(2,3-h)(3)benzazepinex [Varenicline Tartrate, reference compound]	0 ng

Assay: not given
Details: FDA recommended limit; cited from earlier work

Compound	Acceptable daily intake limit (FDA)
CN(CCCC(=O)O)N=O [NMBA, N-nitroso-N-methyl-4-aminobutanoic acid]	96 ng/day
CN(C)N=O [NDMA, N-nitrosodimethylamine]	96 ng/day
CC(C)N(N=O)C(C)C [NDIPA, N-nitrosodiisopropylamine]	26.5 ng/day
CCN(CC)N=O [NDEA, N-nitrosodiethylamine]	26.5 ng/day
O=NN1CC2CC(C1)c1cc3nccnc3cc12 [NVC, N-nitroso-varenicline]	37 ng/day
CCN(N=O)C(C)C [NIPEA, N-nitrosoisopropylethyl amine]	26.5 ng/day
